Test results reported in ChEMBL document CHEMBL4350974, “Synthesis and biological evaluation of methylpyrimidine-fused tricyclic diterpene analogs as novel oral anti-late-onset hypogonadism agents” (Eur J Med Chem, 2019).
Calls of active or inactive are those of the source. The rule behind the calls is not given here.

Columns and labels:
[1] = test system: TM3; assay: Induction of testosterone production in mouse TM3 cells assessed as increase in testosterone level at 20 uM measured after 24 hrs by ELISA relative to control; format: functional
[2] = Cytotoxicity against mouse TM3 cells assessed as reduction in cell viability measured after 24 hrs by sulforhodamine B assay; format: cell-based
[3] = Toxicity in cyclophosphamide - induced Sprague-Dawley rat model of partial androgen deficiency assessed as sperm viability by semen analysis (reference value: 95.1 +/- 3.2 %)
[4] = species: Rattus norvegicus; assay: Potency index, ratio of test compound effect to testosterone effect for anti late-onset hypogonadism activity in cyclophosphamide-induced Sprague-Dawley rat model of partial androgen deficiency assessed as inhibition of Leydig cells apoptosis; format: functional
[5] = test system: Rattus norvegicus; assay: Anti late-onset hypogonadism activity in cyclophosphamide-induced Sprague-Dawley rat model of partial androgen deficiency assessed as weight of seminal vesicles at 10 mg/kg, sc administered for every 3 days for 4 weeks Rvb = 1.33 +/- 0.26 g); format: functional
[6] = Toxicity in cyclophosphamide-induced Sprague-Dawley rat model of partial androgen deficiency assessed as decrease in body weight at 10 mg/kg, sc administered for every 3 days up to 4 weeks and measured every 3 days; format: organism-based; conditions: in vivo
[7] = test system: Rattus norvegicus; assay: Anti late-onset hypogonadism activity in cyclophosphamide-induced Sprague-Dawley rat model of partial androgen deficiency assessed as increase in serum total testosterone level at 10 mg/kg, sc administered for every 3 days up to 4 weeks and measured every 2 weeks by ELISA; format: functional, organism-based
[8] = Toxicity in cyclophosphamide - induced Sprague-Dawley rat model of partial androgen deficiency assessed as sperm motility by semen analysis (reference value: 88.3 +/- 7.3 %); conditions: in vivo
[9] = test system: Rattus norvegicus; assay: Anti late-onset hypogonadism activity in cyclophosphamide-induced Sprague-Dawley rat model of partial androgen deficiency assessed as intratesticular testosterone level at 10 mg/kg, sc administered for every 3 days up to 4 weeks ELISA (reference value: 137.99 +/- 19.27 nmol/L); format: functional
[10] = test system: Rattus norvegicus; assay: Anti late-onset hypogonadism activity in cyclophosphamide-induced Sprague-Dawley rat model of partial androgen deficiency assessed as inhibition of Leydig cells apoptosis at 10 mg/kg, sc administered for every 3 days up to 4 weeks by DAPI staining based TUNEL assay; format: functional, organism-based
[11] = test system: Rattus norvegicus; assay: Anti late-onset hypogonadism activity in cyclophosphamide-induced Sprague-Dawley rat model of partial androgen deficiency assessed as weight of testis at 10 mg/kg, sc administered for every 3 days for 4 weeks (reference value: 1.47 +/- 0.13 g); format: functional
[12] = test system: Rattus norvegicus; assay: Anti late-onset hypogonadism activity in cyclophosphamide-induced Sprague-Dawley rat model of partial androgen deficiency assessed as increase in free testosterone level at 10 mg/kg, sc administered for every 3 days up to 4 weeks and measured every 2 weeks by ELISA; format: functional, organism-based

Row | Compound | Activity [1] | CC50 at 24 h [2] | further results
1 | COc1cc2c(cc1C(=O)NCC(C)C)CCC1C(C)(C)c3nc(C)ncc3C[C@]21C (mixture of isomers) | 114.7% |  | 
2 | COc1cc2c(cc1C(=O)Nc1ncco1)CCC1C(C)(C)c3nc(C)ncc3C[C@]21C (mixture of isomers) | 176.9% | < 50 µM | 
3 | COc1ccc2c(c1)[C@@]1(C)Cc3cnc(C)nc3C(C)(C)C1CC2 (mixture of isomers) | 145% | 151 µM | 
4 | COc1ccc2c(c1)[C@@]1(C)Cc3cnc(C)nc3C(C)(C)C1C/C2=N/O (mixture of isomers) | 128.5% |  | 
5 | COc1ccc(-c2oc3c(CC=C(C)C)c(O[C@@H]4O[C@H](CO)[C@@H](O)[C@H](O)[C@H]4O)cc(O)c3c(=O)c2O[C@@H]2O[C@@H](C)[C@H](O)[C@@H](O)[C@H]2O)cc1 [ICARIIN] | 139.6% | > 200 µM | 
6 | COc1ccc2c(c1)[C@@]1(C)Cc3nccnc3C(C)(C)C1CC2 (some centres not stated) | 134% | 71.3 µM | 
7 | COc1cc2c(cc1NC(C)=O)CCC1C(C)(C)c3nc(C)ncc3C[C@]21C (mixture of isomers) | 157.6% | > 200 µM | 
8 | CCCCNC(=O)c1cc2c(cc1OC)[C@@]1(C)Cc3cnc(C)nc3C(C)(C)C1CC2 (mixture of isomers) | 166.9% | < 50 µM | 
9 | COc1cc2c(cc1C(=O)NN)CCC1C(C)(C)c3nc(C)ncc3C[C@]21C (mixture of isomers) | 130% | > 200 µM | 
10 | COc1ccc2c(c1)[C@@]1(C)Cc3c[nH]nc3C(C)(C)C1CC2 (some centres not stated) | 116.6% | < 50 µM | 
11 | COc1cc2c(cc1C(=O)NN1CCCCC1)CCC1C(C)(C)c3nc(C)ncc3C[C@]21C (mixture of isomers) | 111.5% |  | 
12 | COc1cc2c(cc1N)CCC1C(C)(C)c3nc(C)ncc3C[C@]21C.Cl (mixture of isomers) | 146.6% | 127 µM | 
13 | CNCc1cc2c(cc1OC)[C@@]1(C)Cc3cnc(C)nc3C(C)(C)C1CC2 (mixture of isomers) | 176.6% | 124 µM | 
14 | Cc1ncc2c(n1)C(C)(C)C1CCc3ccc(OCc4ccccc4)cc3[C@@]1(C)C2 (mixture of isomers) | 133% |  | 
15 | Cc1ncc2c(n1)C(C)(C)C1CCc3ccc(OC(C)C)cc3[C@@]1(C)C2 (mixture of isomers) | 129.3% |  | 
16 | CCCNC(=O)c1cc2c(cc1OC)[C@@]1(C)Cc3cnc(C)nc3C(C)(C)C1CC2 (mixture of isomers) | 140.9% |  | 
17 | COc1cc2c(cc1C(=O)N1CCc3ccccc31)CCC1C(C)(C)c3nc(C)ncc3C[C@]21C (mixture of isomers) | 116.9% |  | 
18 | COc1ccc2c(c1)[C@@]1(C)Cc3c(n[nH]c3C(=O)O)C(C)(C)C1CC2 (some centres not stated) | 128.2% | > 200 µM | 
19 | C[C@]12CC[C@H]3[C@@H](CCC4=CC(=O)CC[C@@]43C)[C@@H]1CC[C@@H]2O [TESTOSTERONE] |  |  | Activity [3]: 88.8%; Ratio [4]: 2; Activity [5]: 1.64 g; Activity [6]: Non-Toxic; Activity [7]: Active; Activity [8]: 79.8%; Activity [9]: 145.38 nmol/L; inhibition [10]: Active; Activity [11]: 1.53 g; Activity [12]: Active
20 | COc1cc2c(cc1C(=O)NCc1cccc(Cl)c1)CCC1C(C)(C)c3nc(C)ncc3C[C@]21C (mixture of isomers) | 164.2% | < 50 µM | 
21 | COc1cc2c(cc1C(=O)NO)CCC1C(C)(C)c3nc(C)ncc3C[C@]21C (mixture of isomers) | 189.5% | 82.2 µM | 
22 | COc1ccc2c(c1)[C@@]1(C)Cc3sc(N)nc3C(C)(C)C1CC2 (some centres not stated) | 110.9% | < 50 µM | 
23 | C#CCOc1ccc2c(c1)[C@@]1(C)Cc3cnc(C)nc3C(C)(C)C1CC2 (mixture of isomers) | 120.5% |  | 

Row | Compound | Activity [1] | CC50 at 24 h [2] | further results
24 | C=CCNC(=O)c1cc2c(cc1OC)[C@@]1(C)Cc3cnc(C)nc3C(C)(C)C1CC2 (mixture of isomers) | 142.9% |  | 
25 | CCOC(=O)c1[nH]nc2c1C[C@]1(C)c3cc(OC)ccc3CCC1C2(C)C (some centres not stated) | 160.9% | < 50 µM | 
26 | C=CCOc1ccc2c(c1)[C@@]1(C)Cc3cnc(C)nc3C(C)(C)C1CC2 (mixture of isomers) | 142% |  | 
27 | CCc1ccc(NC(=O)c2cc3c(cc2OC)[C@@]2(C)Cc4cnc(C)nc4C(C)(C)C2CC3)cc1 (mixture of isomers) | 167.8% | < 50 µM | 
28 | COc1cc2c(cc1C(=O)O)CCC1C(C)(C)c3nc(C)ncc3C[C@]21C (mixture of isomers) | 121.2% |  | 
29 | COc1ccc2c(c1)[C@@]1(C)Cc3c([nH]c4ccccc34)C(C)(C)C1CC2 (some centres not stated) | 183.4% | < 50 µM | 
30 | C#CCNC(=O)c1cc2c(cc1OC)[C@@]1(C)Cc3cnc(C)nc3C(C)(C)C1CC2 (mixture of isomers) | 118.1% |  | 
31 | COc1cccc(NC(=O)c2cc3c(cc2OC)[C@@]2(C)Cc4cnc(C)nc4C(C)(C)C2CC3)c1 (mixture of isomers) | 173.6% | < 50 µM | 
32 | COc1ccc2c(c1)[C@@]1(C)Cc3cnc(C)nc3C(C)(C)C1C=C2 (mixture of isomers) | 129.8% |  | 
33 | COc1cc2c(cc1Br)CCC1C(C)(C)c3nc(C)ncc3C[C@]21C (mixture of isomers) | 119.2% |  | 
34 | COc1cc2c(cc1C(=O)Nc1nccs1)CCC1C(C)(C)c3nc(C)ncc3C[C@]21C (mixture of isomers) | 134.1% |  | 
35 | Cc1ncc2c(n1)C(C)(C)C1CCc3ccc(O)cc3[C@@]1(C)C2 (mixture of isomers) | 124.4% |  | 
36 | COc1cc2c(cc1C(N)=O)CCC1C(C)(C)c3nc(C)ncc3C[C@]21C (mixture of isomers) | 169.8% | > 200 µM | 
37 | Cc1ncc2c(n1)C(C)(C)C1CCc3ccc(OCc4cccc([N+](=O)[O-])c4)cc3[C@@]1(C)C2 (mixture of isomers) | 122.4% |  | 
38 | CCNC(=O)c1cc2c(cc1OC)[C@@]1(C)Cc3cnc(C)nc3C(C)(C)C1CC2 (mixture of isomers) | 141.3% |  | 
39 | COc1cc2c(cc1C(=O)N(C)C)CCC1C(C)(C)c3nc(C)ncc3C[C@]21C (mixture of isomers) | 133.1% | > 200 µM | 
40 | COc1cc2c(cc1C(=O)NC1CCCC1)CCC1C(C)(C)c3nc(C)ncc3C[C@]21C (mixture of isomers) | 122.4% |  | 
41 | COc1cc2c(cc1C(=O)Nc1ccc3[nH]ncc3c1)CCC1C(C)(C)c3nc(C)ncc3C[C@]21C (mixture of isomers) | 181.5% | < 50 µM | 
42 | COc1ccc2c(c1)[C@@]1(C)Cc3cnc(C)nc3C(C)(C)C1CC2=O (mixture of isomers) | 109.9% |  | 
43 | CCCCCNC(=O)c1cc2c(cc1OC)[C@@]1(C)Cc3cnc(C)nc3C(C)(C)C1CC2 (mixture of isomers) | 171.9% | < 50 µM | 
44 | COc1cc2c(cc1C(=O)Nc1ccccc1)CCC1C(C)(C)c3nc(C)ncc3C[C@]21C (mixture of isomers) | 156.8% | < 50 µM | 
45 | CCCOc1ccc2c(c1)[C@@]1(C)Cc3cnc(C)nc3C(C)(C)C1CC2 (mixture of isomers) | 113.2% |  | 
